We go through ten sequences from patent US20060263802A1 (priority 2003, published 2006).

Common to all, as to assay type: binding
The subject of assay [1] is human monoclonal antibody CR57.
For assay [2], the system named is human monoclonal antibody CRJA.
Assay [3] deals with human monoclonal antibody CRJA. This is another data set of the same source.
Assay [4] deals with human monoclonal antibody CRJB.
Assay [5] has as its system human monoclonal antibody CRJB. This is another data set of the same source.
Assay [6] relates to human monoclonal antibody CR57. The source holds these as a separate data set.

As for STVFKDGDEAEDFVE, in assay [1], the “Binding of CR57 to looped/cyclic peptide (PEPSCAN-ELISA signal)” value was found to be 106. Further, the “Binding of human monoclonal antibody CRJA to linear peptide (PEPSCAN-ELISA signal)” value in assay [2] turned out to be 93. In assay [3], the “Binding of CRJA to looped/cyclic peptide (PEPSCAN-ELISA signal)” value was 100. The “Binding of human monoclonal antibody CRJB to linear peptide (PEPSCAN-ELISA signal)” value in assay [4] amounted to 120. Further, the “Binding of CRJB to looped/cyclic peptide (PEPSCAN-ELISA signal)” value in assay [5] was determined as 93. For the same sequence, the “Binding of human monoclonal antibody CR57 to linear peptide (PEPSCAN-ELISA signal)” value in assay [6] is 104.

For the sequence VAMQTSNETKWCPPD, the “Binding of CR57 (10 μg/ml) to looped/cyclic peptide (PEPSCAN-ELISA)” value in assay [1] is listed as 45. Moreover, the “Binding of CRJA to linear peptide (PEPSCAN-ELISA signal)” value (“Binding of CRJA to linear peptide” for short) in assay [2] is on record as 97. Moreover, the “Binding of CRJA (10 μg/ml) to looped/cyclic peptide (PEPSCAN-ELISA)” value in assay [3] was determined as 90. Further, in assay [4], the “Binding of CRJB to linear peptide (PEPSCAN-ELISA signal)” value (“Binding of CRJB to linear peptide” below) is listed as 104. Besides, in assay [5], the “Binding of CRJB (10 μg/ml) to looped/cyclic peptide (PEPSCAN-ELISA)” value was determined as 66. Besides, in assay [6], the “Binding of CR57 to linear peptide (PEPSCAN-ELISA signal)” value (shortened to “Binding of CR57 to linear peptide”) was 86.

Take DALESIMTTKSVSFR: the “Binding of CR57 (10 μg/ml) to looped/cyclic peptide (PEPSCAN-ELISA)” value in assay [1] was 127. The “Binding of CRJA to linear peptide” value in assay [2] turned out to be 105. Moreover, in assay [3], the “Binding of CRJA (10 μg/ml) to looped/cyclic peptide (PEPSCAN-ELISA)” value is reported as 110. In addition, the “Binding of CRJB to linear peptide” value in assay [4] worked out at 120. The “Binding of CRJB (10 μg/ml) to looped/cyclic peptide (PEPSCAN-ELISA)” value in assay [5] is 127. In assay [6], the “Binding of CR57 to linear peptide” value came out at 104.

For the sequence CGFVDERGLYKSLKG, the “Binding of CR57 (10 μg/ml) to looped/cyclic peptide (PEPSCAN-ELISA)” value in assay [1] is on record as 85. Moreover, the “Binding of CRJA to linear peptide” value in assay [2] stood at 94. In assay [3], the “Binding of CRJA (10 μg/ml) to looped/cyclic peptide (PEPSCAN-ELISA)” value is given as 90. Further, the “Binding of CRJB to linear peptide” value in assay [4] worked out at 115. Further, in assay [5], the “Binding of CRJB (10 μg/ml) to looped/cyclic peptide (PEPSCAN-ELISA)” value worked out at 76. In addition, the “Binding of CR57 to linear peptide” value in assay [6] stood at 72.

For CSTNHDYTIWMPENP, in assay [1], the “Binding of CR57 (10 μg/ml) to looped/cyclic peptide (PEPSCAN-ELISA signal)” value came to 47. For the same sequence, in assay [2], the “Binding of CRJA to linear peptide” value amounted to 58. Also, in assay [3], the “Binding of CRJA (10 μg/ml) to looped/cyclic peptide (PEPSCAN-ELISA signal)” value was determined as 41. In addition, the “Binding of CRJB to linear peptide” value in assay [4] stood at 106. Also, the “Binding of CRJB (10 μg/ml) to looped/cyclic peptide (PEPSCAN-ELISA signal)” value in assay [5] came to 72. Moreover, the “Binding of CR57 to linear peptide” value in assay [6] was found to be 52.

Take HSRVFPSGKCSGVAV: the “Binding of CR57 (10 μg/ml) to looped/cyclic peptide (PEPSCAN-ELISA signal)” value in assay [1] amounted to 138. Moreover, the “Binding of CRJA to linear peptide” value in assay [2] was 111. In addition, in assay [3], the “Binding of CRJA (10 μg/ml) to looped/cyclic peptide (PEPSCAN-ELISA signal)” value is 113. In addition, the “Binding of CRJB to linear peptide” value in assay [4] is 118. The “Binding of CRJB (10 μg/ml) to looped/cyclic peptide (PEPSCAN-ELISA signal)” value in assay [5] worked out at 104. In addition, in assay [6], the “Binding of CR57 to linear peptide” value stood at 97.

On to NNLVVEDEGCTNLSG, for which the “Binding of CR57 (10 μg/ml) to looped/cyclic peptide (PEPSCAN-ELISA signal)” value in assay [1] worked out at 86. For the same sequence, in assay [2], the “Binding of CRJA to linear peptide” value is on record as 93. Also, in assay [3], the “Binding of CRJA (10 μg/ml) to looped/cyclic peptide (PEPSCAN-ELISA signal)” value turned out to be 88. Moreover, the “Binding of CRJB to linear peptide” value in assay [4] was 99. For the same sequence, the “Binding of CRJB (10 μg/ml) to looped/cyclic peptide (PEPSCAN-ELISA signal)” value in assay [5] came to 75. In addition, the “Binding of CR57 to linear peptide” value in assay [6] worked out at 72.

Consider NSRGKRASKGSETCG, for which the “Binding of CR57 (10 μg/ml) to looped/cyclic peptide (PEPSCAN-ELISA signal)” value in assay [1] is reported as 107. Also, the “Binding of CRJA to linear peptide” value in assay [2] turned out to be 63. For the same sequence, the “Binding of CRJA (10 μg/ml) to looped/cyclic peptide (PEPSCAN-ELISA signal)” value in assay [3] stood at 71. The “Binding of CRJB to linear peptide” value in assay [4] turned out to be 100. For the same sequence, the “Binding of CRJB (10 μg/ml) to looped/cyclic peptide (PEPSCAN-ELISA signal)” value in assay [5] was determined as 60. For the same sequence, the “Binding of CR57 to linear peptide” value in assay [6] turned out to be 92.

For the sequence GPDGNVLIPEMQSSL, the “Binding of CR57 (10 μg/ml) to looped/cyclic peptide (PEPSCAN-ELISA)” value in assay [1] came to 141. The “Binding of CRJA to linear peptide” value in assay [2] came out at 91. Further, the “Binding of CRJA (10 μg/ml) to looped/cyclic peptide (PEPSCAN-ELISA)” value in assay [3] amounted to 112. Further, the “Binding of CRJB to linear peptide” value in assay [4] was 154. The “Binding of CRJB (10 μg/ml) to looped/cyclic peptide (PEPSCAN-ELISA)” value in assay [5] is 100. Moreover, the “Binding of CR57 to linear peptide” value in assay [6] came to 86.

Regarding NLVVEDEGCTNLSGF, the “Binding of CR57 (10 μg/ml) to looped/cyclic peptide (PEPSCAN-ELISA signal)” value in assay [1] was determined as 106. For the same sequence, the “Binding of CRJA to linear peptide” value in assay [2] is 85. Moreover, the “Binding of CRJA (10 μg/ml) to looped/cyclic peptide (PEPSCAN-ELISA signal)” value in assay [3] worked out at 74. For the same sequence, the “Binding of CRJB to linear peptide” value in assay [4] is listed as 119. In assay [5], the “Binding of CRJB (10 μg/ml) to looped/cyclic peptide (PEPSCAN-ELISA signal)” value is 92. Further, the “Binding of CR57 to linear peptide” value in assay [6] turned out to be 75.
